Data published in patent US20210196793A1, “Pharmaceutical Combination Comprising Epidermal Growth Factor and Secretagogue Peptide GHRP6 for the Restoration of Brain Damage” (CENTRO DE INGENIERÍA GENÉTICA Y BIOTECNOLOGÍA, priority 2018, published 2021).

Test system: patients with Amyotrophic Lateral Sclerosis
Test: Patients with Amyotrophic Lateral Sclerosis, ALSFRS-R functional scale
Assay type: in vivo, human
Settings: for ALSFRS-R before treatment: baseline
Method: Forty patients with definite diagnosis of Amyotrophic Lateral Sclerosis were treated with EGF 0.6 μg/kg of body weight, and GHRP6 60 μg/kg of body weight, intravenously, every other day, during 6 months, together with Rilutek® (Riluzole). Previously, these patients were stratified according to the origin of the disease, spinal (n=25) or bulbar (n=15). Another group of 30 patients with definite diagnosis of Amyotrophic Lateral Sclerosis, also stratified according to origin, spinal (n=21) or bulbar (n=9), were treated only with Rilutek®.
Before the beginning and after the end of the trial, all patients were evaluated using the functional scale for Amyotrophic Lateral Sclerosis (ALSFRS-R). The ALSFRS-R scale is usually used for the neurological and functional evaluation of patients with said disease. This scale includes various functional items, such as those related to language, salivation, swallowing, the ability to write, handling eating utensils, dressing and sanitizing, turning in bed, climbing stairs, and breathing.

Nc1nc2ccc(OC(F)(F)F)cc2s1 [Rilutek ®, Riluzole]
clinical improvement (salivation, swallowing, breathing, dysarthria) (after 6 months of treatment, spinal and bulbar onset): None of the latter was observed
ALSFRS-R after the treatment (bulbar origin, after 6 months of treatment): 33.1 ± 8.32
ALSFRS-R before treatment (bulbar origin): 35.1 ± 6.2
ALSFRS-R after the treatment (spinal origin, after 6 months of treatment): 38.2 ± 3.34
ALSFRS-R before treatment (spinal origin): 38.7 ± 4.4
